Measurements from patent publication US20230082430A1 (C4 Therapeutics, Inc., priority 2019, published 2023).

System: NCIH929.1 cells
Experiment: Cell viability assay for Table 2 (CellTiter-Glo 2.0, ATP quantification, 96 hr)
Assay type: cell-based
Conditions: 96 h, NCIH929.1 cell viability, 96 hr, top concentration 1 μM, 14 points half log titration; read-out: IC50
From the text: Cell Viability Assay for Table 2
CellTiter-Glo® 2.0 Assay was purchased from Promega (Madison, Wis., USA). NCIH929.1 cell line was purchased from ATCC (Manassas, Va., USA). Cell culture flasks and 384-well microplates were acquired from VWR (Radnor, Pa., USA).

**Q.** How did the IC50 turn out when `O=C1CCC(N2C(=O)c3cccc4c(Cc5cnn(C6CCN(C(=O)C78COC(C7)C8)CC6)c5)ccc2c34)C(=O)N1` (centres unmarked) [Compound 37, 3-(6-((1-(1-(2-oxabicyclo[2.1.1]hexane-4-carbonyl)piperidin-4-yl)-1H-pyrazol-4-yl)methyl)-2-oxobenzo[cd]indol-1(2H)-yl)piperidine-2,6-dione] was run?
**A.** < 1 nM

**Q.** With `N#CC1(C(=O)N2CCC(n3cc(Cc4ccc5c6c(cccc46)C(=O)N5C4CCC(=O)NC4=O)cn3)CC2)CC1` (centres unmarked) [Compound 38, 1-(4-(4-((1-(2,6-dioxopiperidin-3-yl)-2-oxo-l,2-dihydrobenzo[cd]indol-6-yl)methyl)-1H-pyrazol-1-yl)piperidine-1-carbonyl)cyclopropane-1-carbonitrile] as the compound, how does the IC50 read?
**A.** < 1 nM

**Q.** `N#CC1(C(=O)N2CCC(n3cc(Cc4ccc5c6c(cccc46)C(=O)N5C4CCC(=O)NC4=O)cn3)CC2)CCC1` (centres unmarked) [Compound 39, 1-(4-(4-((1-(2,6-dioxopiperidin-3-yl)-2-oxo-1,2-dihydrobenzo[cd]indol-6-yl)methyl)-1H-pyrazol-1-yl)piperidine-1-carbonyl)cyclobutane-1-carbonitrile] was tested. Which IC50 did it give?
**A.** < 1 nM

**Q.** How did the IC50 turn out when `CC(C)(C#N)C(=O)N1CCC(n2cc(Cc3ccc4c5c(cccc35)C(=O)N4C3CCC(=O)NC3=O)cn2)CC1` (centres unmarked) [Compound 40, 3-(4-(4-((1-(2,6-dioxopiperidin-3-yl)-2-oxo-1,2-dihydrobenzo[cd]indol-6-yl)methyl)-1H-pyrazol-1-yl)piperidin-1-yl)-2,2-dimethyl-3-oxopropanenitrile] was run?
**A.** < 1 nM

**Q.** Which IC50 does the source give for `CC1(C(=O)N2CCC(n3cc(Cc4ccc5c6c(cccc46)C(=O)N5C4CCC(=O)NC4=O)cn3)CC2)CCOCC1` (centres unmarked) [Compound 41, 3-(6-((1-(1-(4-methyltetrahydro-2H-pyran-4-carbonyl)piperidin-4-yl)-1H-pyrazol-4-yl)methyl)-2-oxobenzo[cd]indol-1(2H)-yl)piperidine-2,6-dione] here?
**A.** < 1 nM

**Q.** For `O=C1CCC(N2C(=O)c3cccc4c(Cc5cnn(C6CCN(C(=O)c7ccncc7)CC6)c5)ccc2c34)C(=O)N1` (centres unmarked) [Compound 42, 3-(6-((1-(1-isonicotinoylpiperidin-4-yl)-1H-pyrazol-4-yl)methyl)-2-oxobenzo[cd]indol-1(2H)-yl)piperidine-2,6-dione], which IC50 is on record?
**A.** < 1 nM

**Q.** For `O=C1CCC(N2C(=O)c3cccc4c(Cc5cnn(C6CCN(C(=O)c7cccnc7)CC6)c5)ccc2c34)C(=O)N1` (centres unmarked) [Compound 43, 3-(6-((1-(1-nicotinoylpiperidin-4-yl)-1H-pyrazol-4-yl)methyl)-2-oxobenzo[cd]indol-1(2H)-yl)piperidine-2,6-dione], which IC50 is on record?
**A.** < 1 nM

**Q.** `CC(C)(C)C(=O)N1CCC(n2cc(Cc3ccc4c5c(cccc35)C(=O)N4C3CCC(=O)NC3=O)cn2)CC1` (centres unmarked) [Compound 44, 3-(2-oxo-6-((1-(1-pivaloylpiperidin-4-yl)-1H-pyrazol-4-yl)methyl)benzo[cd]indol-1(2H)-yl)piperidine-2,6-dione] was tested. Which IC50 did it give?
**A.** < 1 nM

**Q.** How did the IC50 turn out when `Cc1cccc(C)c1C(=O)N1CCC(n2cc(Cc3ccc4c5c(cccc35)C(=O)N4C3CCC(=O)NC3=O)cn2)CC1` (centres unmarked) [Compound 45, 3-(6-((1-(1-(2,6-dimethylbenzoyl)piperidin-4-yl)-1H-pyrazol-4-yl)methyl)-2-oxobenzo[cd]indol-1(2H)-yl)piperidine-2,6-dione] was run?
**A.** < 1 nM

**Q.** `O=C1CCC(N2C(=O)c3cccc4c(Cc5cnn(C6CCN(C(=O)c7ccccn7)CC6)c5)ccc2c34)C(=O)N1` (centres unmarked) [Compound 46, 3-(2-oxo-6-((1-(1-picolinoylpiperidin-4-yl)-1H-pyrazol-4-yl)methyl)benzo[cd]indol-1(2H)-yl)piperidine-2,6-dione] was tested. Which IC50 did it give?
**A.** < 1 nM

**Q.** `O=C1CCC(N2C(=O)c3cccc4c(Cc5cnn(C6CCN(C(=O)c7ccccc7)CC6)c5)ccc2c34)C(=O)N1` (centres unmarked) [Compound 47, 3-(6-((1-(1-benzoylpiperidin-4-yl)-1H-pyrazol-4-yl)methyl)-2-oxobenzo[cd]indol-1(2H)-yl)piperidine-2,6-dione] was tested. Which IC50 did it give?
**A.** < 1 nM

**Q.** For `O=C1CCC(N2C(=O)c3cccc4c(Cc5cnn(C6CCN(C(=O)C78CC(CO7)C8)CC6)c5)ccc2c34)C(=O)N1` (centres unmarked) [Compound 48, 3-(6-((1-(1-(2-oxabicyclo[2.1.1]hexane-1-carbonyl)piperidin-4-yl)-1H-pyrazol-4-yl)methyl)-2-oxobenzo[cd]indol-1(2H)-yl)piperidine-2,6-dione], which IC50 is on record?
**A.** < 1 nM

**Q.** For `CC12CC(C(=O)N3CCC(n4cc(Cc5ccc6c7c(cccc57)C(=O)N6C5CCC(=O)NC5=O)cn4)CC3)(CCO1)C2` (centres unmarked) [Compound 49, 3-(6-((1-(1-(1-methyl-2-oxabicyclo[3.1.1]heptane-5-carbonyl)piperidin-4-yl)-1H-pyrazol-4-yl)methyl)-2-oxobenzo[cd]indol-1(2H)-yl)piperidine-2,6-dione], which IC50 is on record?
**A.** < 1 nM

**Q.** Which IC50 does the source give for `O=C1CCC(N2C(=O)c3cccc4c(Cc5cnn(C6CCN(C(=O)C78CCCC(C7)C8)CC6)c5)ccc2c34)C(=O)N1` (centres unmarked) [Compound 50, 3-(6-((1-(1-(bicyclo[3.1.1]heptane-1-carbonyl)piperidin-4-yl)-1H-pyrazol-4-yl)methyl)-2-oxobenzo[cd]indol-1(2H)-yl)piperidine-2,6-dione] here?
**A.** < 1 nM

**Q.** Which IC50 does the source give for `O=C1CCC(N2C(=O)c3cccc4c(Cc5cnn(C6CCN(C(=O)C7(C(F)(F)F)CCC7)CC6)c5)ccc2c34)C(=O)N1` (centres unmarked) [Compound 51, 3-(2-oxo-6-((1-(1-(1-(trifluoromethyl)cyclobutane-1-carbonyl)piperidin-4-yl)-1H-pyrazol-4-yl)methyl)benzo[cd]indol-1(2H)-yl)piperidine-2,6-dione] here?
**A.** < 1 nM

**Q.** For `O=C1CCC(N2C(=O)c3cccc4c(Cc5cnn(C6CCN(C(=O)C7(C(F)(F)F)CC7)CC6)c5)ccc2c34)C(=O)N1` (centres unmarked) [Compound 52, 3-(2-oxo-6-((1-(1-(1-(trifluoromethyl)cyclopropane-1-carbonyl)piperidin-4-yl)-1H-pyrazol-4-yl)methyl)benzo[cd]indol-1(2H)-yl)piperidine-2,6-dione], which IC50 is on record?
**A.** < 1 nM

**Q.** For `CC1(C(=O)N2CCC(n3cc(Cc4ccc5c6c(cccc46)C(=O)N5C4CCC(=O)NC4=O)cn3)CC2)CCC1` (centres unmarked) [Compound 53, 3-(6-((1-(1-(1-methylcyclobutane-1-carbonyl)piperidin-4-yl)-1H-pyrazol-4-yl)methyl)-2-oxobenzo[cd]indol-1(2H)-yl)piperidine-2,6-dione], which IC50 is on record?
**A.** < 1 nM

**Q.** For `O=C1CCC(N2C(=O)c3cccc4c(Cc5cnn(C6CCN(C(=O)C78C9C%10C%11C9C7C%11C%108)CC6)c5)ccc2c34)C(=O)N1` (centres unmarked) [Compound 54, 3-(6-((1-(1-(cubane-1-carbonyl)piperidin-4-yl)-1H-pyrazol-4-yl)methyl)-2-oxobenzo[cd]indol-1(2H)-yl)piperidine-2,6-dione], which IC50 is on record?
**A.** < 1 nM

**Q.** With `CC1(CN2CCC(n3cc(Cc4ccc5c6c(cccc46)C(=O)N5C4CCC(=O)NC4=O)cn3)CC2)CCC1` (centres unmarked) [Compound 55, 3-(6-((1-(1-((1-methylcyclobutyl)methyl)piperidin-4-yl)-1H-pyrazol-4-yl)methyl)-2-oxobenzo[cd]indol-1(2H)-yl)piperidine-2,6-dione] as the compound, how does the IC50 read?
**A.** < 1 nM

**Q.** How did the IC50 turn out when `COC1(CN2CCC(n3cc(Cc4ccc5c6c(cccc46)C(=O)N5C4CCC(=O)NC4=O)cn3)CC2)CCC1` (centres unmarked) [Compound 56, 3-(6-((1-(1-((1-methoxycyclobutyl)methyl)piperidin-4-yl)-1H-pyrazol-4-yl)methyl)-2-oxobenzo[cd]indol-1(2H)-yl)piperidine-2,6-dione] was run?
**A.** < 1 nM
